# Test results as given in article PMC9879991, “Biomolecular condensates formed by designer minimalistic peptides” (Nature Communications, 2023).
# No end group written: not given here.
# Test: Phase diagram in citrate / tris / ammonium bicarbonate buffers
# Assay type: physicochemical
# Conditions: 20 mM citrate (pH 3-7)/tris (pH 7-9)/ammonium bicarbonate (pH 9-12), 0.2 M NaCl, room temperature
# Protocol: Since this analysis is highly sensitive to pH fluctuation, we also created phase diagrams for all peptides using three different buffers that are optimized for specific pH range: citrate buffer for pH 3–7, tris buffer for pH 7–9 and ammonium bicarbonate for pH 9–12 (Supplementary Fig. 1). While the trend in these phase diagrams is similar to that obtained only in tris buffer, the critical pH for LLPS is lower in citrate buffer for all LLPS-promoting peptides (Supplementary Fig. 1).
# 150 μl of 5 mM, 8 mM, 10 mM, 15 mM, 20 mM, and 30 mM peptide solutions were prepared in either 20 mM tris buffer or 20 mM of the following three buffers: citrate buffer for pH 3–7 tris buffer for pH 7–9 and ammonium bicarbonate for pH 9–12, with 0.2 M NaCl. The pH was increased gradually until a turbidity appeared and measured as described below. All measurements were performed at room temperature. Data points represent averages of three independent measurements. Turbidity of 35 μl samples was estimated in triplicates from sample absorbance at λ = 500 nm as described below.
# Supplementary Figure 1. Phase diagram of the peptides as a function of peptide concentration and pH, in different buffers: citrate buffer for pH 3-7, tris buffer for pH 7-9, and ammonium bicarbonate buffer for pH 9-12. 0.2 M NaCl was added to all samples, measurements were obtained at room […]
# temperature. […] Values represent average pH of n=3 independent measurements, data are presented as mean values +/- SD. […]
sequence,measurement,setting,value
WGRGRGRGWPGVGY [WGR-1],pH at which turbidity (LLPS) appears,"8 mM peptide, replicate 1",8.43
same,pH at which turbidity (LLPS) appears,"8 mM peptide, replicate 2",8.47
same,pH at which turbidity (LLPS) appears,"8 mM peptide, replicate 3",8.55
same,pH at which turbidity (LLPS) appears,"10 mM peptide, mean of n=3",6.79
same,pH at which turbidity (LLPS) appears,"10 mM peptide, replicate 1",6.32
same,pH at which turbidity (LLPS) appears,"10 mM peptide, replicate 2",7.04
same,pH at which turbidity (LLPS) appears,"10 mM peptide, replicate 3",7.01
same,pH at which turbidity (LLPS) appears,"15 mM peptide, mean of n=3",6.34
same,pH at which turbidity (LLPS) appears,"15 mM peptide, replicate 1",6.41
same,pH at which turbidity (LLPS) appears,"15 mM peptide, replicate 2",6.41
same,pH at which turbidity (LLPS) appears,"15 mM peptide, replicate 3",6.2
same,pH at which turbidity (LLPS) appears,"20 mM peptide, mean of n=3",4.96
same,pH at which turbidity (LLPS) appears,"20 mM peptide, replicate 1",5.1
same,pH at which turbidity (LLPS) appears,"20 mM peptide, replicate 2",4.89
same,pH at which turbidity (LLPS) appears,"20 mM peptide, replicate 3",4.89
same,pH at which turbidity (LLPS) appears,"30 mM peptide, replicate 1",4.78
same,pH at which turbidity (LLPS) appears,"30 mM peptide, replicate 2",4.27
same,pH at which turbidity (LLPS) appears,"30 mM peptide, replicate 3",4.52
